# Measurements as given in patent publication US20230049145A1, “GLYCOSYLATED POLYPEPTIDES” (FRESENIUS KABI DEUTSCHLAND GMBH, priority 2019, published 2023).
# Assays:
# [1] = tested on: CHO cells; experiment: Glycosylation profile of recombinant human EPO produced in CHO cells in perfusion culture supplemented with kifunensine; assay type: cell-based, Chinese hamster; details: CHO perfusion culture 18 days, 12 μg/L kifunensine from day 0
# Protocol: CHO cells transfected with expression vectors encoding recombinant human EPO (UniProt Accession No. P01588, Sequence Version 1, Entry Version 195) are cultured in perfusion bioreactors for 18 days under standard operating parameters. The culture medium is supplemented with 12 μg/L kifunensine from day 0.
# Recombinant human EPO produced during the culture period is harvested throughout the production phase and at the end of the culture period, a sample is obtained to determine the glycosylation profile. The resultant recombinant human EPO has increased mannosylation and sialylation compared to that produced in cultures without kifunensine.
# [2] = tested on: Sp2/0 cells; experiment: Sialylation of human IgG1 antibody (golimumab) produced in Sp2/0 cells in perfusion culture supplemented with kifunensine; glycan analysis by HILIC; assay type: cell-based, Murine; details: IgG1 (golimumab) from Sp2/0 cells
# Protocol: (§1) Murine Sp2/0 cells transfected with expression vectors encoding SEQ ID NOs: 1 and 2 (which correspond to the heavy and light chains respectively of the human anti-TNFα IgG1 monoclonal antibody, golimumab) were cultured in perfusion bioreactors for 30 days under standard operating parameters. To examine the effect of kifunensine on the sialylation levels of the resulting IgG1, the perfusion cultures were supplemented with either 3, 6, 9, or 12 μg/L kifunensine (corresponding to 13 nM, 26 nM, 39 nM or 52 nM). A control culture was also maintained under the same conditions albeit in the absence of kifunensine.
# (§2) On culture day 18, samples were taken from the perfusion bioreactors and the percentage sialylation of the IgG1 antibodies was determined by glycan analysis. Briefly, antibodies were first purified using protein A chromatography, glycans were then enzymatically released from the antibody, fluorescently labelled with 2-aminobenzamide and analysed using hydrophilic interaction chromatography (HILIC) based methods.
# [3] = tested on: Sp2/0 cells; experiment: Cell viability of Sp2/0 perfusion cultures supplemented with kifunensine; assay type: cell-based, Murine; details: Sp2/0 perfusion cultures, 3, 6, 9 or 12 μg/L kifunensine (13, 26, 39 or 52 nM), 30 days
# Protocol: as §1
# [4] = tested on: CHO cells; experiment: Fc-glycan sialylation of human IgG2 antibody (denosumab) produced in CHO cells in fed-batch culture supplemented with kifunensine; assay type: cell-based, Chinese hamster; details: IgG2 (denosumab) from CHO cells, day 20, FIG. 2
# Protocol: as §2
# (§3) CHO cells transfected with expression vectors encoding SEQ ID NOs: 3 and 4 (which correspond to the heavy and lights chains respectively of the human anti-RANKL IgG2 monoclonal antibody, denosumab) were cultured in bioreactors using standard fed-batch methods. To examine the effects of kifunensine on the Fc-glycan sialylation levels of the resulting IgG2, the cultures were supplemented with either 30, 40, 50 or 60 nM kifunensine on day 3 of the culture. A control culture was also maintained under the same conditions albeit in the absence of kifunensine.
# On day 20, samples were taken from bioreactors and the percentage Fc-glycan sialylation of the IgG2 antibodies was determined as described in Example 1.
# [5] = tested on: CHO cells; experiment: Cell viability of CHO fed-batch cultures supplemented with kifunensine; assay type: cell-based, Chinese hamster; details: CHO fed-batch cultures, 30, 40, 50 or 60 nM kifunensine added on day 3
# Protocol: as §3
smiles,measurement,setting,value
"O=C1N[C@@H]2[C@@H](O)[C@@H](O)[C@H](O)[C@@H](CO)N2C1=O [kifunensine, (5R,6R,7S,8R,8aS)-6,7,8-trihydroxy-5-(hydroxymethyl)-1,5,6,7,8,8a-hexahydroimidazo[1,2-a]pyridine-2,3-dione]",mannosylation of recombinant human EPO compared to cultures without kifunensine,[1],increased
same,sialylation of recombinant human EPO compared to cultures without kifunensine,[1],increased
same,kifunensine concentration giving peak sialylation levels,"[2]; culture day 18, FIG. 1",12 µg/L
same,kifunensine concentration at which an increase in sialylation compared to control was evident,"[2]; culture day 18, FIG. 1, particularly 9 and 12 μg/L",≥ 6 µg/L
same,kifunensine concentration giving peak sialylation levels (molar),"[2]; culture day 18, conversion of 12 μg/L",~52 nM
same,impact on cell viability,[3],No significant impact on cell viability
same,kifunensine concentration at which an increase in Fc-glycan sialylation compared to control was evident,[4],> 40 nM
same,kifunensine concentration giving peak Fc-glycan sialylation,[4],60 nM
same,impact on cell viability,[5],No significant impact on cell viability
